Experimental data as given in patent US8318798B2, “Therapeutic agent for neurodegenerative disease” (priority 2005, dated 2012).

How the values were obtained:
DJ-1 protein [1] = target: T1, DJ-1 protein (Homo sapiens, UniProt Q99497); assay: Binding to DJ-1 protein by AffinixQ quartz oscillator frequency change; conditions: compound fixed on sensor chip; DJ-1 protein vs BSA added (FIG. 11)
T1 sequence (Q99497 1-189): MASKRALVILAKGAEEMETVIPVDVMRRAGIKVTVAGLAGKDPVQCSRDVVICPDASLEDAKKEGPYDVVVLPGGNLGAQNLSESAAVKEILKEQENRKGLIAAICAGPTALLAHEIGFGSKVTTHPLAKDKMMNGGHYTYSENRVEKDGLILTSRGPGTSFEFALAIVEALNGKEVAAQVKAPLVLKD
From the text: The AffinixQ is an instrument for quantifying interaction between biomolecules at the order of nanograms by changes in frequency of the crystal oscillator. It utilizes the proportional relationship between change in frequency of the quartz oscillator and the weight of the adherings on the surface of the quartz oscillator.
The compound was fixed on top of the sensor chip, which is the oscillator, using an amino coupling reagent. The sensor chip onto which the compound had been fixed was immersed in a measurement vessel filled with 8 mL of PBS (phosphate buffer), and held until the frequency became constant. Following this, 8 μL of 1 mg/mL DJ-1 protein or BSA (bovine serum albumin) was added to the measurement vessel.

DJ-1 protein [2] = target: T1, DJ-1 protein; assay: Suppression of transition of DJ-1 to oxidized form (H2O2 treatment, isoelectric focusing); assay type: biochemical; conditions: 0.2 mM or 2 mM H2O2, room temperature 1 hour; isoelectric focusing (FIG. 12)
Procedure: In this example, it was confirmed that compound 1 and compound 5 suppressed the transition of DJ-1 to an oxidized form.
0.5 mg of purified DJ-1 protein was dissolved in 1 mL of PBS. 10 μL of 1 mM compound 1, 5, or 7 was added to 500 μL of this DJ-1 protein solution, and rotated at 4° C. for 1 hour. Subsequently, 0.4 or 4 mM hydrogen peroxide (H2O2) was added thereto, the mixture was allowed to stand at room temperature for 1 hour then the hydrogen peroxide concentration became 0.2 mM or 2 mM. Further, dialysis was carried out 3 times with PBS for a total of 4.5 hours, followed by an isoelectric focusing 0.5 μg of the DJ-1 protein . The reagents used in the isoelectric focusing were as follows. • Gel solution for isoelectric focusing: 9.2 M Urea, 2% NP-40, 4% acrylamide, 1% Ampholine (pH 5-8; Amersham Bioscience), 1% Ampholine (pH 3-10; Amersham Bioscience) • Sample Buffer: 5 M Urea, 2 M ThioUrea, 2% NP-40, 5% Glycerin, 5% 2-mercaptoethanol, 1.6% Ampholine (pH 5-8), 0.4% Ampholine (pH 3.5-10) • Protection solution: 8 M Urea, 0.8% Ampholine (pH 5-8), 0.2% • Ampholine (pH 3.5-10) • Electrophoresis Buffer+electrode: 0.02 M Phosphoric acid • −electrode: 0.02 M NaOH • Towbin: 25 mM Tris, 192 mM Glycine

mitochondrial complex 1 = assay: Maintenance of mitochondrial Complex 1 activity in 6-hydroxydopamine-treated SH-SY5Y cells; assay type: cell-based, human; conditions: compound 1 μM, 24 h before 50 μM 6-hydroxydopamine, 6 h; compared with control (FIG. 13)
Procedure: In this example, the effect of compounds 1, 5, and 8 in maintaining the activity of mitochondrial complex 1 was examined.
6-Hydroxydopamine induces oxidative stress by degrading the enzymic activity of Complex 1 and thereby causing a functional disorder. It is considered that the compounds identified here would suppress neuronal death due to oxidative stress by preventing deactivation of complex 1. Therefore, changes in activity of complex 1 resulting from addition of the compound was measured.
SH-SY5Y human neurons were plated onto a 10 cm dish and cultured to 80% confluency. Compounds 1, 5, and 8 individually were added at the compound concentration of 1 μM, or sterile water was added. 24 hours after the addition of the compound or sterile water, 6-hydroxydopamine (PBS solvent) was added at a 6-hydroxydopamine concentration of 50 μM, or the same amount of PBS (containing no 6-hydroxydopamine) was added. 6 hours after the addition of 6-hydroxydopamine, the cells were collected. […] After quantifying the protein, 100 μg of the mitochondrial protein was added to a cuvette filled with a reaction buffer, and the total amount was made up to 480 μL. After incubation at 37° C. for 3 minutes, 20 μL of 5 mM NADH was added to the cuvette, and decrease in absorbance at 340 nm was monitored for 4 minutes using an absorptiometer. […]

dopamine neurons = assay: TH staining of dopamine neurons in rat midbrain substantia nigra after 6-OHDA injection; assay type: in vivo; conditions: 1 mM compound injected simultaneously with 6 mM 6-OHDA (FIG. 16)
Procedure: The midbrain substantia nigra (SNpc) was dissected out and fixed in a 100 mM phosphate buffer containing 4% of paraformaldehyde for 2 days, and then submerged in 100 mM phosphate buffer (containing 15% of sucrose and 0.1% of sodium azide). A 20 μm thick slices were prepared using Cryostat, and submerged in a 100 mM phosphate buffer containing 0.3% Triton X-100 (PBS-T).
These brain slices were reacted with anti-tyrosine hydroxylase (TH: a dopamine-biosynthetic enzyme and marker for dopamine neurons, manufactured by Sigma, 1:20,000 dilution) at 4° C. for 3 days, then washed, and reacted with a biotinylated anti-mouse IgG antibody (1:2,000 dilution) at room temperature for 2 hours. Subsequently, avidin peroxidase coloration was carried out using an ABC kit (Vector Laboratories) at room temperature for 1 hour. After washing several times with PBS-T, coloration was carried out by nickel ammonium-containing 3,3′-diaminobenzidine (DAB).
In the left substantia nigra into which only 6-OHDA was injected, TH staining was not observed and thus dopaminergic neuron death was observed. In the right substantia nigra, which was not injected with 6-OHDA, live dopamine neurons were observed (FIG. 16 (1)).

SH-SY5Y human neurons = assay: Suppression of 6-hydroxydopamine-induced cell death of SH-SY5Y human neurons (Cell Counting Kit-8 / MTT assay); assay type: cell-based; conditions: compound 1 μM, 24 h before 100 μM 6-hydroxydopamine, 40 h; compared with control (FIG. 9)
Procedure: In this example, the effect of compounds 1 to 8 in suppressing cell death of SH-SY5Y human neurons was examined.
SH-SY5Y human neurons ([…], USA) were plated on a 96-well plate, and cultured to 80% confluency.
Compounds 1 to 8 in sterile aqueous solutions were individually added thereto at a sample concentration of 1 μM, or sterile water was added as a control.
24 hours after the addition of compounds 1 to 8 or sterile water, 6-hydroxydopamine (PBS solvent) (Wako Pure Chemical Industries, Ltd.) was added to each at a 6-hydroxydopamine concentration of 100 μM, or the same amount of PBS (containing no 6-hydroxydopamine) was added. Furthermore, 40 hours after the addition of 6-hydroxydopamine, Cell Counting Kit-8 was added for carrying out an MTT assay.
After 3 hours, a viable cell count was measured by measuring the absorbance at wavelength of 450 nm. For each of compounds 1 to 8 and the control, the viability was obtained from ‘(the viable cell count when 6-hydroxydopamine was added)/(the viable cell count when no 6-hydroxydopamine was added)’.
Compared with the control and compounds 7 and 8, it can be seen that the addition of any one of compounds 1 to 6 enhances the viability.

[3] = system: rats injected with 6-hydroxydopamine (6-OHDA); assay: Methamphetamine-induced rotation of rats injected with 6-OHDA into midbrain left substantia nigra; assay type: in vivo, rat; conditions: 1 mM compound injected simultaneously with 6 mM 6-OHDA into left substantia nigra; methamphetamine after 9 weeks
Procedure: In this example, compound 1, 5, or 8 was injected into rat midbrain left substantia nigra and the effect thereof was examined. • (1) Either 6 mM of 6-hydroxydopamine (6-OHDA) alone or mixtures of 6 mM of 6-OHDA and 1 mM of each compound was injected into the midbrain left substantia nigra (4.8 mm×1.8 mm, 7.8 mm depth) of rats (Wister rat, male, 250 g). Where the rat was injected with 6 mM of 6-hydroxydopamine (6-OHDA) in midbrain left substantia nigra, the right-side substantia nigra was intact but in the left-side oxidative stress induced the death of dopamine neurons, and the rat rotate in a clockwise direction due to the imbalanced amount of acting dopamine, showing a behavioral abnormality characteristic of Parkinson's disease patients.
After 9 weeks, the rats were injected with methamphetamine (Dainippon Pharma Co., Ltd.), which causes a dopamine release, leading to a release of large amount of dopamine from dopamine neurons into the striatum. Because of the imbalance in the amounts of released dopamine between the left and right substantia nigra the rats started to rotate in a clockwise direction. The rats were placed in a rotameter, and the number of rotations was measured. The total number of rotations over 60 minutes is shown in FIG. 14, and the number of rotations at every 5 minutes over time is shown in FIG. 15. […]

Compound | binding to DJ-1 protein (frequency change) (DJ-1 protein [1]) | dopaminergic neuronal death in left substantia nigra (TH staining) (dopamine neurons) | also measured
CC1(C)OC2C(=O)O[C@@H](n3cnc4c(N)ncnc43)C2O1 (some centres unmarked) [compound 1] | bind to DJ-1 protein | neuronal death was considerably suppressed | transition of DJ-1 protein to an oxidized form (DJ-1 protein [2]): suppressed the transition of DJ-1 protein to an oxidized form; Complex 1 activity (mitochondrial complex 1): Complex 1 activity was maintained
CS(=O)(=O)O[C@H]1CO[C@@H](Cn2cnc3c(N)ncnc32)C1O (some centres unmarked) [compound 2] | bind to DJ-1 protein | – | –
CC(=O)O[C@H](CO)[C@H](O)C(O)Cn1cnc2c(N)ncnc21 (some centres unmarked) [compound 4] | bind to DJ-1 protein | – | –
COc1ccc(CC(=O)NCCc2cc(OC)c3c(c2)OCO3)cc1OCc1ccccc1 [compound 5] | – | neuronal death was considerably suppressed | transition of DJ-1 protein to an oxidized form (DJ-1 protein [2]): suppressed the transition of DJ-1 protein to an oxidized form; Complex 1 activity (mitochondrial complex 1): Complex 1 activity was maintained
NC(=O)C(CS(N)(=O)=O)NC(=O)C(Cc1ccccc1)NC(=O)CNC(=O)OCc1ccccc1 (centres unmarked) [compound 6] | bind to DJ-1 protein | – | –
CC1(C)OC2C(O1)[C@@H](CO)O[C@H]2n1cnc2c(NC(=O)C(C)(C)C)ncnc21 (some centres unmarked) [compound 7] | – | – | viability (effect in suppressing cell death) (SH-SY5Y human neurons): did not have such effects
COCO[C@@H](/C=C/C(=O)OCc1ccccc1)[C@@H](CCO[Si](C)(C)C(C)(C)C)C(Cc1ccccc1)Cc1ccccc1 [compound 8] | – | did not have such effect | viability (effect in suppressing cell death) (SH-SY5Y human neurons): did not have such effects; effect on behavioral abnormality (number of rotations), in words [3]: did not show such effect
